Assays:
[1] = biological target: T1, Full length DGKα (D21-10BG, SignalChem) (Homo sapiens, UniProt P23743); test: Biochemical DGK IC50 assay (ADP-Glo, lipid micelle substrate), DGKα; conditions: 1 hour preincubation, 1 hour reaction, room temperature
T1 construct: Full length DGKα (D21-10BG, SignalChem); purchased SignalChem D21-10BG
Method: (§1) Enzymatic reactions of DGKζ, DGKα and DGKδ were performed using ADP-Glo assay with lipid micelle substrate. […] Full length DGKα (D21-10BG, SignalChem) and full length DGKδ (D23-10G, SignalChem) were purchased. Lipid micelle was prepared by dissolving DAG (Sigma, 317505-10 MG) and PS (Sigma, P7769-100 MG) with chloroform which was furtherly removed by rotary evaporation. The obtained residue was resuspended in buffer containing 25 mM HEPES pH 7.0, 0.5 mM EDTA and 160 mM Octyl β-D glucopyranoside by vigorous mixing and ultrasonic (IID, Scientz).
(§2) The inhibition activities testing for the compound disclosed herein were carried out at room temperature in assay buffer containing 50 mM HEPES, 10 mM MgCl2, 0.01% BSA, 0.1 mM Na3VO4, 0.005% Tween-20 and 0.01 mM CaCl2). Compounds in DMSO were dispensed into wells of a black 384 well plate (Corning 4514) using D300e digital dispenser (Tecan). […] 3 μL 2× enzyme solution was added to wells. […] After 1 hour reaction, 5 μL ADP-Glo reagent (Promga V9101) was added and incubated for 40 minutes. 10 μL Kinase Detection reagent was added and incubated for 30 minutes. Luminescence was measured on a microplate reader (PHERAstar FSX, BMG labtech). The IC50S are calculated based on inhibition of enzyme activity in the presence of increasing concentrations of compounds.

[2] = biological target: T2, Full length DGKζ (in-house protein M1-V929) (Homo sapiens, UniProt Q13574); test: Biochemical DGK IC50 assay (ADP-Glo, lipid micelle substrate), DGKζ; conditions: 1 hour preincubation, 1 hour reaction, room temperature
T2 construct: His (N); TEV site (N); made in house; host or cells: Sf9 insect cells (Bac-to-Bac baculovirus)
T2 sequence (Q13574 1-929 isoform Q13574-4): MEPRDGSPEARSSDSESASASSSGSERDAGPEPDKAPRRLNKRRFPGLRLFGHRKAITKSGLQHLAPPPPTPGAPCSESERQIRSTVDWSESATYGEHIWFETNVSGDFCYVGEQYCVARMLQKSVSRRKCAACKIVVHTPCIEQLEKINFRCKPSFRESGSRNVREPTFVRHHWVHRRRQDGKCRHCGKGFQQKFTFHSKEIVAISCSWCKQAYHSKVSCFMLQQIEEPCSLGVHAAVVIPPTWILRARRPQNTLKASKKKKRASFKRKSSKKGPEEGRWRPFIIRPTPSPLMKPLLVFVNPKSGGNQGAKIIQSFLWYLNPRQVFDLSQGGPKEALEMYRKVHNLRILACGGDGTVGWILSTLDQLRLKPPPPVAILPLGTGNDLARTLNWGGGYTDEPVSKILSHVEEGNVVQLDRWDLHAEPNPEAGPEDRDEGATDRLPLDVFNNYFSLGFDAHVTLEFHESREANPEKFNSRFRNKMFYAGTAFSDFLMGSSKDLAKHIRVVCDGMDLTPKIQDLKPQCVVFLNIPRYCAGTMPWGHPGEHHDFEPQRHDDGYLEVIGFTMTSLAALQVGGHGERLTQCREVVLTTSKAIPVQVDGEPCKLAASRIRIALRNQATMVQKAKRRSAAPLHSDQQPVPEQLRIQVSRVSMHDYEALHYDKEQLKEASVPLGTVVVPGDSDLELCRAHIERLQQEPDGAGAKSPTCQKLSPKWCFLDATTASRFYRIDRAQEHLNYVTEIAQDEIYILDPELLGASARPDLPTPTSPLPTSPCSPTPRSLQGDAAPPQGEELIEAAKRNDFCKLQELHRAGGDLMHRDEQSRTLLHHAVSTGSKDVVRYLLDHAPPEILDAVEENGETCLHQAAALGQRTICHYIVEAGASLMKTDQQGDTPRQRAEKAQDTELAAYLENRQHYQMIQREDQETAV
Method: as §1, §2
Human His-TEV-DGK-zeta-pFastBac1 and human baculovirus samples was generated using the Bac- to -Bac baculovirus expression system (Invitrogen) according to the manufacturer's protocol. The DNA used for expression of DGK-zeta, have SEQ ID Nos: 1. Baculovirus amplification was achieved using infected SF9 cells at 1:2000 virus/cells ratios, and grown for 96 hours at 27° C. post-transfected.
The expression scaled up for each protein was carried out in the […] from CORNING. 4 L of 3×10^6 cells/mL Sf9 cells (Expression System, Invitrogen) grown in SF900™ II SFM insect medium (Expression System) was infected with virus stock at 1:200 virus/cells ratio, and grown for 48 hours at 27° C. post-transfection. The infected cell culture was harvested by centrifugation at 6000 rpm for 15 min 4° C. in a SORVALL LYNX6000 centrifuge. The cell pellets were stored at −80° C.
Full length human DGKζ produced as described above, was purified from Sf9 baculovirus-infected insect cell paste. The cells were lysed using sonication method, and the lysates were clarified by centrifugation.

T1 sequence (P23743 whole entry): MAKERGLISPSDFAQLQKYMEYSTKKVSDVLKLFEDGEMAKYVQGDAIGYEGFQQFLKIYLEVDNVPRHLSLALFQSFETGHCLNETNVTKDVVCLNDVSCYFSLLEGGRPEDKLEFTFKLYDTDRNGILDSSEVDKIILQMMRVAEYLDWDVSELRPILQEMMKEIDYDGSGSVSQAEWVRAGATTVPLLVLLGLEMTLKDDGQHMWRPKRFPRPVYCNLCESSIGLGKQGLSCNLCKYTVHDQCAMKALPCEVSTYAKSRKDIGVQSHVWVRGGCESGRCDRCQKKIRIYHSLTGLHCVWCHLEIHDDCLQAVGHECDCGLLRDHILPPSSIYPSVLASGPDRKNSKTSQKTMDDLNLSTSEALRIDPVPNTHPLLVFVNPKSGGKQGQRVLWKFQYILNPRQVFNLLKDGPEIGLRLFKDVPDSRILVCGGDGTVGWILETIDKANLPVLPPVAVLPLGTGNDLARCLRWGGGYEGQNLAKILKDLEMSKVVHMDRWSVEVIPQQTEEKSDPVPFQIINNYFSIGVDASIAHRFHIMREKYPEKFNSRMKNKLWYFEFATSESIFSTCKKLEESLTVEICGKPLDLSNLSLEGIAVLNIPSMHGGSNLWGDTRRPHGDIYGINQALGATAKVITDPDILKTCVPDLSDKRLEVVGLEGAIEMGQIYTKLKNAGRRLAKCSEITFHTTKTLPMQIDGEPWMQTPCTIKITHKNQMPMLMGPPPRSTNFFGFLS

| Structure (SMILES) | IC50 [1] | IC50 [2] |
| --- | --- | --- |
| CC[C@H]1CN(C(C)c2ccc3ncc(C)nc3c2)[C@H](CC)CN1c1nc(=O)n(C)c2c1nc(CC#N)n2C (single isomer, unassigned) [Compound A51a] | 14000 nM | 3 nM |
| CCn1c(CC#N)nc2c(N3C[C@@H](C)N(C(C)c4ccc5c(c4)OC(F)(F)O5)C[C@@H]3C)nc(=O)n(C)c21 (stereo partly drawn) [Compound A99, 2-(6-((2S,5R)-4-(1-(2,2-difluorobenzo[d][1,3]dioxol-5-yl)ethyl)-2,5-dimethylpiperazin-1-yl)-9-ethyl-3-methyl-2-oxo-3,9-dihydro-2H-purin-8-yl)acetonitrile] | 55600 nM | 128 nM |
| CCn1c(CC#N)nc2c(N3C[C@@H](C)N(C(C)c4cc5c(cc4F)OCC(C)(C)O5)C[C@@H]3C)nc(=O)n(C)c21 (single isomer, unassigned) [Compound A157a] | 11600 nM | 28 nM |
| CCn1c(CC#N)nc2c(N3C[C@@H](C)N(C(C)c4cccc(C(C)C)c4)C[C@@H]3C)nc(=O)n(C)c21 (single isomer, unassigned) [Compound A108b] | 95800 nM | 822 nM |
| CCn1c(CC#N)nc2c(N3C[C@@H](C)N(C(C)c4ccc5c(c4)C(C)(C)N(C)C5=O)C[C@@H]3C)nc(=O)n(C)c21 (stereo partly drawn) [Compound A84, 2-(6-((2S,5R)-2,5-dimethyl-4-(1-(2,3,3-trimethyl-1-oxoisoindolin-5-yl)ethyl)piperazin-1-yl)-9-ethyl-3-methyl-2-oxo-3,9-dihydro-2H-purin-8-yl)acetonitrile] | > 150000 nM | 232 nM |
| CC(c1ccc2nccnc2c1)N1C[C@H](C)N(c2cc(=O)n(C)c3sc(CC#N)nc23)C[C@H]1C (single isomer, unassigned) [Compound A194b] | 7020 nM | 873 nM |
| CC(c1ccc2c(c1)OC(C)(C)O2)N1C[C@H](C)N(c2nc(=O)n(C)c3c2nc(CC#N)n3CC(F)F)C[C@H]1C (stereo partly drawn) [Compound A166, 2-(9-(2,2-difluoroethyl)-6-((2S,5R)-4-(1-(2,2-dimethylbenzo[d][1,3]dioxol-5-yl)ethyl)-2,5-dimethylpiperazin-1-yl)-3-methyl-2-oxo-3,9-dihydro-2H-purin-8-yl)acetonitrile] | 26100 nM | 14 nM |
| CCn1c(=O)nc(N2C[C@@H](C)N(C(C)c3ccc4ncc(C)nc4c3)C[C@@H]2C)c2nc(CC#N)n(C)c21 (single isomer, unassigned) [Compound A53b] | > 150000 nM | 662 nM |
| CCn1c(CC#N)nc2c(N3C[C@@H](C)N(C(C)c4cc5c(cn4)OCC(C)(C)O5)C[C@@H]3C)nc(=O)n(C)c21 (stereo partly drawn) [Compound A75, 2-(6-((2S,5R)-4-(1-(2,2-dimethyl-2,3-dihydro-[1,4]dioxino[2,3-c]pyridin-7-yl)ethyl)-2,5-dimethylpiperazin-1-yl)-9-ethyl-3-methyl-2-oxo-3,9-dihydro-2H-purin-8-yl)acetonitrile] | > 150000 nM | 253 nM |
| CCn1c(=O)nc(N2C[C@@H](C)N(C(C)c3ccc4ncc(C)nc4c3)C[C@@H]2C)c2nc(CC#N)n(C)c21 (single isomer, unassigned) [Compound A53a] | 60300 nM | 24 nM |
| Cc1cccc(C(C)N2C[C@H](C)N(c3c(F)c(=O)n(C)c4c3nc(CC#N)n4C)C[C@H]2C)c1C(F)(F)F (single isomer, unassigned) [Compound A17a] | 1460 nM | 133 nM |
| CCn1c(CC#N)nc2c(N3C[C@@H](C)N(C(C)c4ccc5c(c4)OC(C)(C)O5)C[C@@H]3C)nc(=O)n(C)c21 (single isomer, unassigned) [Compound A85b] | 88600 nM | 14 nM |
| CCn1c(CC#N)nc2c(N3C[C@@H](C)N(C(C)c4cccc(C5COC5)c4)C[C@@H]3C)nc(=O)n(C)c21 (stereo partly drawn) [Compound A127, 2-(6-((2S,5R)-2,5-dimethyl-4-(1-(3-(oxetan-3-yl)phenyl)ethyl)piperazin-1-yl)-9-ethyl-3-methyl-2-oxo-3,9-dihydro-2H-purin-8-yl)acetonitrile] | > 150000 nM | 428 nM |
| CCn1c(CC#N)nc2c(N3C[C@@H](C)N(C(C)c4ccc(F)c5c4OC(C)(C)O5)C[C@@H]3C)nc(=O)n(C)c21 (single isomer, unassigned) [Compound A185b] | 82500 nM | 20 nM |
| CCn1c(CC#N)nc2c(N3C[C@@H](C)N(C(C)c4cccc(CN5CCOCC5)c4)C[C@@H]3C)nc(=O)n(C)c21 (stereo partly drawn) [Compound A142, 2-(6-((2S,5R)-2,5-dimethyl-4-(1-(3-(morpholinomethyl)phenyl)ethyl)piperazin-1-yl)-9-ethyl-3-methyl-2-oxo-3,9-dihydro-2H-purin-8-yl)acetonitrile] | > 150000 nM | 6300 nM |
| CCn1c(CC#N)nc2c(N3C[C@@H](C)N(C(C)c4ccc(F)c(C(F)(F)F)c4)C[C@@H]3C)nc(=O)n(C)c21 (stereo partly drawn) [Compound A113, 2-(9-ethyl-6-((2S,5R)-4-(1-(4-fluoro-3-(trifluoromethyl)phenyl)ethyl)-2,5-dimethylpiperazin-1-yl)-3-methyl-2-oxo-3,9-dihydro-2H-purin-8-yl)acetonitrile] | > 150000 nM | 18 nM |
| CCn1c(CC#N)nc2c(N3C[C@@H](C)N(C(C)c4cccc5c4OC(F)(F)O5)C[C@@H]3C)nc(=O)n(C)c21 (stereo partly drawn) [Compound A187, 2-(6-((2S,5R)-4-(1-(2,2-difluorobenzo[d][1,3]dioxol-4-yl)ethyl)-2,5-dimethylpiperazin-1-yl)-9-ethyl-3-methyl-2-oxo-3,9-dihydro-2H-purin-8-yl)acetonitrile] | 115000 nM | 407 nM |
| CCn1c(CC#N)nc2c(N3C[C@@H](C)N(C(C)c4ccc(=O)n(C)c4)C[C@@H]3C)nc(=O)n(C)c21 (stereo partly drawn) [Compound A106, 2-(6-((2S,5R)-2,5-dimethyl-4-(1-(1-methyl-6-oxo-1,6-dihydropyridin-3-yl)ethyl)piperazin-1-yl)-9-ethyl-3-methyl-2-oxo-3,9-dihydro-2H-purin-8-yl)acetonitrile] | > 150000 nM | > 10000 nM |
| CCn1c(CC#N)nc2c(N3C[C@@H](C)N(C(C)c4cccc(C(F)(F)F)c4)C[C@@H]3C)nc(=O)n(C)c21 (single isomer, unassigned) [Compound A42b] | 118000 nM | 285 nM |
| CCn1c(CC#N)nc2c(N3C[C@@H](C)N(C(C)c4ccc5sc(C)nc5c4)C[C@@H]3C)nc(=O)n(C)c21 (stereo partly drawn) [Compound A55, 2-(6-((2S,5R)-2,5-dimethyl-4-(1-(2-methylbenzo[d]thiazol-5-yl)ethyl)piperazin-1-yl)-9-ethyl-3-methyl-2-oxo-3,9-dihydro-2H-purin-8-yl)acetonitrile] | 68700 nM | 31 nM |
| CC(c1ccc2c(c1)OC(C)(C)CO2)N1C[C@H](C)N(c2c(F)c(=O)n(C)c3c2nc(CC#N)n3C)C[C@H]1C (single isomer, unassigned) [Compound A19b] | 6940 nM | 82 nM |
| CCn1c(CC#N)nc2c(N3C[C@@H](C)N(C(C)c4cc5c(cc4F)OC(C)(C)O5)C[C@@H]3C)nc(=O)n(C)c21 (single isomer, unassigned) [Compound A174b] | 30600 nM | 69 nM |
| CCn1c(CC#N)nc2c(N3C[C@@H](C)N(C(C)c4ccnc(N5CCC5)c4)C[C@@H]3C)nc(=O)n(C)c21 (stereo partly drawn) [Compound A121, 2-(6-((2S,5R)-4-(1-(2-(azetidin-1-yl)pyridin-4-yl)ethyl)-2,5-dimethylpiperazin-1-yl)-9-ethyl-3-methyl-2-oxo-3,9-dihydro-2H-purin-8-yl)acetonitrile] | > 150000 nM | 212 nM |
| CC(c1ccc2c(n1)OC(C)(C)CO2)N1C[C@H](C)N(c2nc(=O)n(C)c3c2nc(CC#N)n3CC(F)F)C[C@H]1C (stereo partly drawn) [Compound A165, 2-(9-(2,2-difluoroethyl)-6-((2S,5R)-4-(1-(3,3-dimethyl-2,3-dihydro-[1,4]dioxino[2,3-b]pyridin-6-yl)ethyl)-2,5-dimethylpiperazin-1-yl)-3-methyl-2-oxo-3,9-dihydro-2H-purin-8-yl)acetonitrile] | > 150000 nM | 69 nM |

— patent publication US20260125378A2, “Heterocyclic Compounds” (BeOne Medicines I GmbH, priority 2023, published 2026)
